Legend:
[1] = system: osteoclast precursors (osteoclast differentiation); assay: Osteoclast tartrate-resistant acid phosphatase assay; type: cell-based; conditions: 168 h, at 1 μM treatment, 7 days, RANKL and M-CSF, read-out: inhibition activity against osteoclast differentiation
Outline: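 Differentiation inhibition was scored at 1 μM compound in duplicate, using supernatant TRAP activity read at 550 nm with an acid phosphatase kit.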

FLT3 kinase = FLT3 kinase (Homo sapiens (Human), UniProt P36888); assay: FLT3 kinase assay (radiometric); type: biochemical
Chain of FLT3 kinase (P36888 27-993): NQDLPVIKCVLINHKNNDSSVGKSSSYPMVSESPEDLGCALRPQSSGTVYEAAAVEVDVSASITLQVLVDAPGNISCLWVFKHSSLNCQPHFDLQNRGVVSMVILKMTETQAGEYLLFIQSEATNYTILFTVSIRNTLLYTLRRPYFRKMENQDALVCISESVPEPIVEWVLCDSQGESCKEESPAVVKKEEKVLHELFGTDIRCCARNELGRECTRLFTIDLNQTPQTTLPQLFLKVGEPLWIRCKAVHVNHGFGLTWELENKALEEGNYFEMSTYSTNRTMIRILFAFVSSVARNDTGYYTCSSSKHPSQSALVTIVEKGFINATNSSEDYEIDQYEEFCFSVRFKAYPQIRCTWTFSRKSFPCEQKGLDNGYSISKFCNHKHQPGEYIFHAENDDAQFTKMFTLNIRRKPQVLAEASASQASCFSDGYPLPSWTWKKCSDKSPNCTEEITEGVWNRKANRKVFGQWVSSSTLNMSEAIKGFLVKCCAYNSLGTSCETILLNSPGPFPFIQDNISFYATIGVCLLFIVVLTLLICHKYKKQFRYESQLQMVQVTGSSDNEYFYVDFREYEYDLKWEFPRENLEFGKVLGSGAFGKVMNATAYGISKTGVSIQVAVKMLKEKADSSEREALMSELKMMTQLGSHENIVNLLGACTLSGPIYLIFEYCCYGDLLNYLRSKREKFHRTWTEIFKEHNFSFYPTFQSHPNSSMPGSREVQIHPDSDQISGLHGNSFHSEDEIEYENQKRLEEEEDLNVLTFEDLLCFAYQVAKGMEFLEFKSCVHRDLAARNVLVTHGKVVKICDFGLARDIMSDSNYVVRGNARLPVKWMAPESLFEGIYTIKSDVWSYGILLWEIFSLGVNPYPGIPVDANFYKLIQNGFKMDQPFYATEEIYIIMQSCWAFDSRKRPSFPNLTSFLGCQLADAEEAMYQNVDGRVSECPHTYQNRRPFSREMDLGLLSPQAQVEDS
Outline: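 Recombinant FLT3 (5 ng) phosphorylating poly(Glu4:Tyr1) (2 μg) with 10 μM ATP plus [^33P]-ATP in MOPS pH 7.0 buffer, 4% DMSO final, 60 min at 30° C. Reaction stopped with phosphoric acid, filter-captured and scintillation-counted; IC50 derived from dose-response.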

CSF-1R kinase = CSF-1R kinase (Homo sapiens (Human), UniProt P07333); assay: CSF-1R kinase assay (AlphaScreen); type: biochemical; conditions: class symbol
Chain of CSF-1R kinase (P07333 20-972): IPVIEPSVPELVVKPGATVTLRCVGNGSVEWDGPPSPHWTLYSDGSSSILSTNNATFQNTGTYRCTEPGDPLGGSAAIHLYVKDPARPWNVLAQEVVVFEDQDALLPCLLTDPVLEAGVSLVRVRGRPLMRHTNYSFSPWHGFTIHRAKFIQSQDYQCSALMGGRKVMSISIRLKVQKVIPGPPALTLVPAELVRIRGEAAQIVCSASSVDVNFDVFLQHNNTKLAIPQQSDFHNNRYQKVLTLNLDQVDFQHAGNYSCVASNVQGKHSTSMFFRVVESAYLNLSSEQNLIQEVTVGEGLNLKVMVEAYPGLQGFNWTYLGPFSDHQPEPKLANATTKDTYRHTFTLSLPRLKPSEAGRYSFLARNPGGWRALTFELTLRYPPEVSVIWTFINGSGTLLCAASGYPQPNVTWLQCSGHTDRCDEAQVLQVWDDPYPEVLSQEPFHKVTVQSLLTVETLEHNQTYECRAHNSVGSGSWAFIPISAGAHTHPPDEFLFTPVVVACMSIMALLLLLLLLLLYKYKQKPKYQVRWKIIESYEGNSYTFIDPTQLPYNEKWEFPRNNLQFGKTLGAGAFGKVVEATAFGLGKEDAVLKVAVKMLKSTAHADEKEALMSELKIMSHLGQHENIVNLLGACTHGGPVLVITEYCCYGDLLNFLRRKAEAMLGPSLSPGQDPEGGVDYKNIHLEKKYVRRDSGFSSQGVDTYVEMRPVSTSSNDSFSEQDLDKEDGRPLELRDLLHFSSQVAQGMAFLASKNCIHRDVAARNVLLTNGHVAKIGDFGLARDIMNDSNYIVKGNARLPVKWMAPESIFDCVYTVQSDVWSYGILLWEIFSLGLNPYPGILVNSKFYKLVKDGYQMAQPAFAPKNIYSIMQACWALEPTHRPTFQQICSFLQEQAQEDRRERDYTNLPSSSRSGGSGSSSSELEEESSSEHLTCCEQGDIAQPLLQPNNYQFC
Description: Inhibition of CSF-1R kinase activity by a test compound disclosed herein was estimated by AlphaScreen (PerkinElmer). […] Reactions were incubated at 30° C. for 45 min and stopped by adding 5 μL of 50 mM EDTA. Analysis of resulting product using an AlphaScreen kit, and counted with Enspire Alpha (PerkinElmer). […] The IC50 values of quinoxaline compounds of this invention against CSF-1R kinase were determined using the GraphPad Prism 5 software.

PDGFRβ kinase = PDGFRβ kinase (Homo sapiens (Human), UniProt P09619); assay: PDGFRβ kinase assay (radiometric); type: biochemical
Chain of PDGFRβ kinase (P09619 33-1106): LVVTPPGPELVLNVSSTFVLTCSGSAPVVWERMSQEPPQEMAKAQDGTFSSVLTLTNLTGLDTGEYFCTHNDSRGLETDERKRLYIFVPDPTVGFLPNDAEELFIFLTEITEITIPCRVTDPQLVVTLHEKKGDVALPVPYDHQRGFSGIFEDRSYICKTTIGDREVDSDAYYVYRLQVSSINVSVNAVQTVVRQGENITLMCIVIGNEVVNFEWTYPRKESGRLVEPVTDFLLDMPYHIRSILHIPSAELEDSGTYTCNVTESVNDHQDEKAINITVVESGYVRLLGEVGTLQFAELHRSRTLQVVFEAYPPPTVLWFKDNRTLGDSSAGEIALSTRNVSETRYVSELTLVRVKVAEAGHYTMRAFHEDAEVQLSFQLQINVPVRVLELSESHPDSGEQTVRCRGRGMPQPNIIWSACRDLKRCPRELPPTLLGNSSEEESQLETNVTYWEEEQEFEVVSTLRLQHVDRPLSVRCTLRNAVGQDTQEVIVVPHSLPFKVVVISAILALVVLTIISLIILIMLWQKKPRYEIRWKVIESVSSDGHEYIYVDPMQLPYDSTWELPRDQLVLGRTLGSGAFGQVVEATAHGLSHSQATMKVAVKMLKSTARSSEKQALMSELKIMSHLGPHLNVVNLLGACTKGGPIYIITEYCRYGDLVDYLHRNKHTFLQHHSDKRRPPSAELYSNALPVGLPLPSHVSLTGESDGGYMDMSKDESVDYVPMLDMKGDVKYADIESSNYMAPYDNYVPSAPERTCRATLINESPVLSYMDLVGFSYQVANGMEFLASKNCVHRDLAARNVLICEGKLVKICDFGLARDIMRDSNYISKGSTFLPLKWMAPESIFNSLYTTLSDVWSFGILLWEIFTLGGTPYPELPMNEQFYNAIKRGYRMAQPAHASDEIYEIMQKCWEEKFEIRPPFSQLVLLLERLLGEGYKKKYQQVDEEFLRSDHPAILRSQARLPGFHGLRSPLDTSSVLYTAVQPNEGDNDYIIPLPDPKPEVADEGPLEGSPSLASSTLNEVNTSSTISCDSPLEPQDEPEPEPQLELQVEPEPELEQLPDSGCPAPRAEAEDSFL
Outline: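 Radiometric assay: recombinant PDGFRβ with poly(Glu4:Tyr1) in MOPS pH 7.0 buffer containing Mg2+/Mn2+, 10 μM ATP plus [33P]-ATP, and compound at 4% DMSO final. Incubated 60 min at 30° C, stopped with phosphoric acid, filter-captured and scintillation-counted. IC50 from curve fitting.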

[2] = system: Kasumi-1 human acute myeloid leukemia cell with c-KIT N822K activating mutation; assay: Kasumi-1 cell proliferation assay (CellTiter-96); type: cell-based; conditions: Cytotoxicity, Kasumi-1 cells, 72 hours
Outline: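 After 72 h of treatment with a compound dilution series, growth of c-KIT N822K-driven Kasumi-1 cells (64000 per well, plated the day before) was read as 490 nm absorbance. This followed a 4 h incubation with CellTiter96 AQueous One reagent.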

[3] = system: THP-1 human acute monocytic leukemia cell harboring NRAS G12D mutation; assay: THP-1 cell proliferation assay (counter screen, CellTiter-96); type: cell-based; conditions: Cytotoxicity, THP-1 cells (counter screen), 72 hours
Outline: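 Growth inhibition read as 490 nm absorbance after 4 h with CellTiter96 AQueous One reagent, following 72 h compound exposure at rising concentrations. THP-1 (NRAS G12D) cells plated at 5000 per well and left overnight at 37 °C, 5% CO2 before dosing.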

[4] = system: MV4-11 human acute myeloid leukemia cell with FLT3-ITD mutation; assay: MV4-11 cell proliferation assay (CellTiter-96); type: cell-based; conditions: Cytotoxicity, MV4-11 cells, 72 hours
Outline: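 Growth inhibition read as absorbance at 490 nm after 4 hours with CellTiter96 AQueous One reagent. Before that, FLT3-ITD-dependent MV4-11 cells (6500 cells/well, overnight at 37° C., 5% CO2) received a rising compound concentration series for 72 hours.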

[5] = system: CSF-1-dependent M-NFS-60 mouse myeloid leukemia cell; assay: M-NFS-60 cell proliferation assay (CellTiter-96); type: cell-based; conditions: Cytotoxicity, M-NFS-60 cells, 72 hours
Outline: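 Growth inhibition was measured as absorbance at 490 nm after 4 h with CellTiter 96 AQueous One reagent. Beforehand, M-NFS-60 cells (2000/well, CSF-1-dependent) were treated with a compound dilution series for 72 h following overnight plating at 37 °C, 5% CO2.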

c-KIT kinase = c-KIT kinase (Homo sapiens (Human), UniProt P10721); assay: c-KIT kinase assay (radiometric); type: biochemical
Chain of c-KIT kinase (P10721 26-976): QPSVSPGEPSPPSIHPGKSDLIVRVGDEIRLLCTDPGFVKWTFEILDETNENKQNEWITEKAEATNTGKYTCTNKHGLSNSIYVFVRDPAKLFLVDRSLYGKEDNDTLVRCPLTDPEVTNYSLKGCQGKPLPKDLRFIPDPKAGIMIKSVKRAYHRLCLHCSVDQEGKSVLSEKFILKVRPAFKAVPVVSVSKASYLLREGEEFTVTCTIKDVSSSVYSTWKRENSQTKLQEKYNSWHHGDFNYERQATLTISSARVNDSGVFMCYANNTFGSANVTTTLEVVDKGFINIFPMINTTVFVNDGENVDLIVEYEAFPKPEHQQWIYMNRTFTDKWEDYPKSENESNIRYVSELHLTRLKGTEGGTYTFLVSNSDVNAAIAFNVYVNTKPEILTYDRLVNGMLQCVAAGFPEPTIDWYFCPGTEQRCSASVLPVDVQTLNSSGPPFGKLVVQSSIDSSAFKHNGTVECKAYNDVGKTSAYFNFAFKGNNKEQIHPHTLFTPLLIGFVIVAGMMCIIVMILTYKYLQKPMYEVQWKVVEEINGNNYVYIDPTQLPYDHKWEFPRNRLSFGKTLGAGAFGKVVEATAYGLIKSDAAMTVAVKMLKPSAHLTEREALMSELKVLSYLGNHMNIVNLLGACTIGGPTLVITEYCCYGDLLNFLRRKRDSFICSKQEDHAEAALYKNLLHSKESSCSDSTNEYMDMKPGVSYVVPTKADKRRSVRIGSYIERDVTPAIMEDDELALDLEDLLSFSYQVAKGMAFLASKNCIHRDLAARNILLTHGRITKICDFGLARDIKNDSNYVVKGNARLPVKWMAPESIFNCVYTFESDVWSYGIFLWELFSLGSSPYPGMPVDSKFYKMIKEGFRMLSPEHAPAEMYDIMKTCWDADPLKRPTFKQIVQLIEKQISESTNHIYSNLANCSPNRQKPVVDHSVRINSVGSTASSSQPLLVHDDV
Outline: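 Recombinant c-Kit (20 ng) with 2 μg Poly-(Glu4:Tyr1) in MOPS pH 7.0 buffer with MgCl2/MnCl2, 10 μM ATP plus [^33P]-ATP, 4% DMSO final, 60 min at 30° C. Stopped with phosphoric acid, filter-captured and scintillation counted; IC50 from curve fit.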

| SMILES | inhibition at 1 µM [1] | IC50 (FLT3 kinase; bound) | IC50 (CSF-1R kinase) | IC50 (PDGFRβ kinase; bound) | IC50 [2] | IC50 [3] | IC50 [4] | IC50 [5] | IC50 (c-KIT kinase; class symbol) | IC50 (c-KIT kinase; bound) | IC50 (FLT3 kinase; class symbol) | IC50 (PDGFRβ kinase; class symbol) |
| --- | --- | --- | --- | --- | --- | --- | --- | --- | --- | --- | --- | --- |
| CNc1cnc2ccc(Nc3ccc(OCc4ccc(OC)cc4)c(OC)c3)cc2n1 [Example 25, N^7-(3-methoxy-4-((4-methoxybenzyl)oxy)phenyl)-N^2-methylquinoxaline-2,7-diamine] | > 50% | > 1000 nM | < 100 nM | > 1000 nM | 300 to 1000 nM | 1000 to 10000 nM | 1000 to 10000 nM | < 300 nM | < 100 nM | – | – | – |
| COc1ccc(COc2ncc(Nc3ccc4ncc(N5CCOCC5)nc4c3C#N)cc2OC)cc1 [Example 37, 6-((5-methoxy-6-((4-methoxybenzyl)oxy)pyridin-3-yl)amino)-3-morpholinoquinoxaline-5-carbonitrile] | > 50% | > 1000 nM | < 100 nM | > 1000 nM | > 10000 nM | > 10000 nM | > 10000 nM | < 300 nM | – | > 1000 nM | – | – |
| COc1ccc(COc2ccc(N(C)c3ccc4ncc(N5CCOCC5)nc4c3C#N)cc2OC)cc1 [Example 60, 6-((3-methoxy-4-((4-methoxybenzyl)oxy)phenyl)(methyl)amino)-3-morpholinoquinoxaline-5-carbonitrile] | > 50% | > 1000 nM | < 100 nM | > 1000 nM | 1000 to 10000 nM | > 10000 nM | 1000 to 10000 nM | < 300 nM | 300 to 1000 nM | – | – | – |
| COc1ccc(COc2ccc(Nc3ccc4ncc(N5CCC(C)CC5)nc4c3C#N)cc2OC)cn1 [Example 69, 6-((3-methoxy-4-((6-methoxypyridin-3-yl)methoxy)phenyl)amino)-3-(4-methylpiperidin-1-yl)quinoxaline-5-carbonitrile] | > 50% | > 1000 nM | < 100 nM | > 1000 nM | > 10000 nM | > 10000 nM | > 10000 nM | 300 to 1000 nM | – | > 1000 nM | – | – |
| COc1cc(N(C)c2ccc3ncc(N4CCOCC4)nc3c2C#N)ccc1OCc1ccc(C2CC2)nc1 [Example 130, 6-((4-((6-cyclopropylpyridin-3-yl)methoxy)-3-methoxyphenyl)(methyl)amino)-3-morpholinoquinoxaline-5-carbonitrile] | > 50% | > 1000 nM | < 100 nM | > 1000 nM | 300 to 1000 nM | > 10000 nM | 1000 to 10000 nM | < 300 nM | < 100 nM | – | – | – |
| COc1cc(Nc2ccc3ncc(N4CCOCC4)nc3c2C#N)ccc1OCc1ccc(CF)nc1 [Example 110, 6-((4-((6-(fluoromethyl)pyridin-3-yl)methoxy)-3-methoxyphenyl)amino)-3-morpholinoquinoxaline-5-carbonitrile] | > 50% | > 1000 nM | < 100 nM | > 1000 nM | 1000 to 10000 nM | > 10000 nM | 1000 to 10000 nM | < 300 nM | 100 to 300 nM | – | – | – |
| COc1cc(Nc2ccc3ncc(N4CCOCC4)nc3c2C#N)ccc1OCc1ccc(F)c(F)c1 [Example 99, 6-((4-((3,4-difluorobenzyl)oxy)-3-methoxyphenyl)amino)-3-morpholinoquinoxaline-5-carbonitrile] | > 50% | > 1000 nM | < 100 nM | > 1000 nM | > 10000 nM | > 10000 nM | > 10000 nM | < 300 nM | – | > 1000 nM | – | – |
| COc1cc(Nc2ccc3ncc(N4CCOCC4)nc3c2C#N)ccc1OCc1ccc(C2CC2)nc1 [Example 120, 6-((4-((6-cyclopropylpyridin-3-yl)methoxy)-3-methoxy-phenyl)amino)-3-morpholinoquinoxaline-5-carbonitrile] | > 50% | > 1000 nM | < 100 nM | > 1000 nM | < 300 nM | > 10000 nM | > 10000 nM | < 300 nM | < 100 nM | – | – | – |
| COc1ccc(COc2ccc(Nc3ccc4ncc(NC5CCN(Cc6ccccc6)CC5)nc4c3C#N)cc2OC)cc1 [Example 77, 3-((1-benzylpiperidin-4-yl)amino)-6-((3-methoxy-4-((4-methoxybenzyl)oxy)phenyl)amino)quinoxaline-5-carbonitrile] | > 50% | > 1000 nM | < 100 nM | > 1000 nM | 1000 to 10000 nM | 1000 to 10000 nM | 1000 to 10000 nM | 300 to 1000 nM | 300 to 1000 nM | – | – | – |
| COc1ccc(COc2ccc(Nc3ccc4ncc(N5CCOCC5)nc4c3C#N)cc2)cc1 [Example 38, 6-((4-((4-methoxybenzyl)oxy)phenyl)amino)-3-morpholinoquinoxaline-5-carbonitrile] | > 50% | – | < 100 nM | – | 300 to 1000 nM | > 10000 nM | < 300 nM | < 300 nM | < 100 nM | – | 100 to 300 nM | 100 to 300 nM |
| COc1ccc(COc2ncc(Nc3ccc4ncc(N5CCOCC5)nc4c3C#N)cc2OC)cn1 [Example 144, 6-((5-methoxy-6-((6-methoxypyridin-3-yl)methoxy)pyridin-3-yl)amino)-3-morpholinoquinoxaline-5-carbonitrile] | > 50% | > 1000 nM | < 100 nM | > 1000 nM | > 10000 nM | > 10000 nM | > 10000 nM | < 300 nM | – | > 1000 nM | – | – |
| COc1cc(Nc2ccc3ncc(N4CCOCC4)nc3c2C#N)ccc1OCc1cnn(CC2CC2)c1 [Example 141, 6-((4-((1-(cyclopropylmethyl)-1H-pyrazol-4-yl)methoxy)-3-methoxyphenyl)amino)-3-morpholinoquinoxaline-5-carbonitrile] | > 50% | > 1000 nM | < 100 nM | – | < 300 nM | > 10000 nM | 1000 to 10000 nM | < 300 nM | < 100 nM | – | – | 300 to 1000 nM |
| COc1ccc(COc2ccc(Nc3ccc4ncc(N5CCOCC5)nc4c3C#N)cn2)cc1 [Example 52, 6-((6-((4-methoxybenzyl)oxy)pyridin-3-yl)amino)-3-morpholinoquinoxaline-5-carbonitrile] | > 50% | – | < 100 nM | > 1000 nM | 300 to 1000 nM | > 10000 nM | < 300 nM | 300 to 1000 nM | 100 to 300 nM | – | 300 to 1000 nM | – |
| COCCN1CCN(c2cnc3ccc(Nc4ccc(OCc5ccc(C)nc5)c(OC)c4)c(C#N)c3n2)CC1 [Example 100, 6-((3-methoxy-4-((6-methylpyridin-3-yl)methoxy)phenyl)amino)-3-(4-(2-methoxyethyl)piperazin-1-yl)quinoxaline-5-carbonitrile] | > 50% | > 1000 nM | < 100 nM | > 1000 nM | 300 to 1000 nM | > 10000 nM | 1000 to 10000 nM | < 300 nM | 100 to 300 nM | – | – | – |
| COc1cc(Nc2ccc3ncc(N4CCC(N(C)C)CC4)nc3c2C#N)ccc1OCc1cccc(C#N)c1 [Example 84, 6-((4-((3-cyanobenzyl)oxy)-3-methoxyphenyl)amino)-3-(4-(dimethylamino)piperidin-1-yl)quinoxaline-5-carbonitrile] | > 50% | > 1000 nM | < 100 nM | > 1000 nM | 300 to 1000 nM | 1000 to 10000 nM | 1000 to 10000 nM | < 300 nM | < 100 nM | – | – | – |
